Values after ≈ are worked out from the molar mass of the structure shown. Where two headings read alike, the source gives them in different places.
Tests used:
C. difficile = assay: MIC/MBC testing (Example 5); format: cell-based; details: for MBC:MIC: ratios of 1-4 are indicative of bactericidal activity
Bifidobacterium longum [1] = assay: Broth microdilution MIC, anaerobic bacteria (Example 4); format: cell-based; details: isolate MMX 3968
B. fragilis ATCC 25285 [2] = details: Example 5 control agents table; cited from earlier work
Clostridium difficile [3] = assay: Broth microdilution MIC, anaerobic bacteria (Example 4); format: cell-based; details: Clostridioides difficile
Lactobacillus jensenii [4] = assay: as above; format: cell-based; details: isolate MMX 4149
Bifidobacterium bifidum [5] = assay: Broth microdilution MIC, anaerobic bacteria (Example 1); format: cell-based; details: Bifidobacterium bifidum; Example 1; isolate MMX 3965; read-out: MIC
B. fragilis ATCC 25285 [6] = assay: MIC/MBC testing (Example 5); format: cell-based; details: Bacteroides fragilis, ATCC25285
Clostridium difficile [7] = assay: Broth microdilution MIC, anaerobic bacteria (Example 1); format: cell-based; details: Clostridioides difficile
Bacteroides fragilis [8] = assay: as above; format: cell-based; details: Bacteroides fragilis, ATCC5285
B. longum MMX 3968 = assay: MIC/MBC testing (Example 5); format: cell-based
Lactobacillus crispatus = assay: Broth microdilution MIC, anaerobic bacteria (Example 1); format: cell-based; details: Lactobacillus crispatus; Example 1; isolate MMX 4147; read-out: MIC
Bifidobacterium bifidum [9] = assay: Broth microdilution MIC, anaerobic bacteria (Example 4); format: cell-based; details: isolate MMX 3965
Bifidobacterium longum [10] = assay: Broth microdilution MIC, anaerobic bacteria (Example 1); format: cell-based; details: Bifidobacterium longum; Example 1; isolate MMX 3968; read-out: MIC
B. bifidum MMX 3965 = assay: MIC/MBC testing (Example 5); format: cell-based
Lactobacillus jensenii [11] = assay: Broth microdilution MIC, anaerobic bacteria (Example 1); format: cell-based; details: Lactobacillus jensenii; Example 1; isolate MMX 4149; read-out: MIC
Acinetobacter baumannii = assay: Broth microdilution MIC, aerobic bacteria (Example 4); format: cell-based
strains tested = assay: MIC/MBC testing, summary (Example 5); format: cell-based
Aspergillus fumigatus = assay: Broth microdilution MIC, fungi (Example 4); format: cell-based; details: Aspergillus fumigatus, Example 4, isolate MMX 5280 (MYA-3626)
Pseudomonas aeruginosa = assay: Broth microdilution MIC, aerobic bacteria (Example 4); format: cell-based
E. coli ATCC 25922 = assay: MIC/MBC testing (Example 5); format: cell-based; details: Escherichia coli, ATCC25922
[12] = tested on: Enterococcus faecalis (VRE); assay: microbe, parasite or virus in culture; format: cell-based
S. pneumoniae ATCC 49619 = assay: MIC/MBC testing (Example 5); format: cell-based; details: Streptococcus pneumoniae, ATCC49619
Streptococcus pneumoniae = assay: Broth microdilution MIC, aerobic bacteria (Example 4); format: cell-based; details: ATCC49619
[13] = Compound precipitation in uninoculated solubility controls (Example 4); format: physicochemical; design: key to precipitation observed (type): NA: not applicable (no precipitation observed); TRP: trace precipitate; DCP: distinct precipitate
Protocol: Un-inoculated solubility control plates for each test media and drug were incubated in parallel with test plates and observed for evidence of drug precipitation. MICs were read where visible growth of the organism was inhibited.

[14] = tested on: evaluated yeast and fungal isolates; assay: Broth microdilution MIC, summary (Example 4); format: cell-based
[15] = tested on: Staphylococcus aureus (MRSA); assay: microbe, parasite or virus in culture; format: cell-based
S. pyogenes MMX 404 = assay: MIC/MBC testing (Example 5); format: cell-based
[16] = tested on: Enterococcus faecalis (VSE); assay: Broth microdilution MIC, aerobic bacteria (Example 4); format: cell-based; details: ATCC29212
Candida parapsilosis = assay: Broth microdilution MIC, fungi (Example 4); format: cell-based; details: for concentration at which 50% inhibition observed relative to the growth control: value in parenthesis; for MIC: Lodderomyces parapsilosis
S. aureus MMX 757 = assay: MIC/MBC testing (Example 5); format: cell-based
E. faecalis MMX 848 = assay: MIC/MBC testing (Example 5); format: cell-based
[17] = tested on: Staphylococcus aureus (MSSA); assay: Broth microdilution MIC, aerobic bacteria (Example 4); format: cell-based; details: ATCC 29213 / MSSA
gram-negative aerobes = assay: Broth microdilution MIC, summary (Example 4); format: cell-based; details: tested alone
S. aureus ATCC 29213 = assay: MIC/MBC testing (Example 5); format: cell-based
E. faecalis ATCC 29212 = assay: MIC/MBC testing (Example 5); format: cell-based
Bacteroides fragilis [18] = assay: Broth microdilution MIC, anaerobic bacteria (Example 4); format: cell-based; details: ATCC25285, isolate MMX 123 (ATCC 25285)
Streptococcus pyogenes = assay: Broth microdilution MIC, aerobic bacteria (Example 4); format: cell-based
[19] = tested on: Klebsiella pneumoniae (KPC-2); assay: microbe, parasite or virus in culture; format: cell-based
Escherichia coli = assay: Broth microdilution MIC, aerobic bacteria (Example 4); format: cell-based; details: ATCC25922
[20] = Clostridioides difficile, ATCC700057, Example 5, ATCC 700057
[21] = ATCC700057, Example 4, isolate MMX 4381 (ATCC 700057)
[22] = Clostridioides difficile, Example 5, MMX 8330
[23] = Clostridioides difficile, Example 5, MMX 8333
[24] = ratios of 1-4 are indicative of bactericidal activity
[25] = Staphylococcus aureus, ATCC29213
[26] = Enterococcus faecalis, ATCC29212
[27] = Bifidobacterium longum, MMX3968
[28] = Bifidobacterium bifidum, MMX3965

## Cc1ncc([N+](=O)[O-])n1CCO [Metronidazole]
C. difficile; [20]
  MIC: 0.12 µg/mL (≈ 0.701 µM)
C. difficile; Clostridioides difficile, Example 5, MMX 8330, read-out: MIC
  MIC: 0.5 µg/mL (≈ 2.92 µM)
C. difficile; Example 5, MMX 8333
  MIC: 0.5 µg/mL (≈ 2.92 µM)
Bifidobacterium longum [1]
  MIC: 8 µg/mL (≈ 46.7 µM)
B. fragilis ATCC 25285 [2]
  CLSI QC range (MIC): (0.25-2)^1 μg/mL
Clostridium difficile [3]; [21]
  MIC: 0.25 µg/mL (≈ 1.46 µM)
Clostridium difficile [3]; Example 4, isolate MMX 8330
  MIC: 0.25 µg/mL (≈ 1.46 µM)
Clostridium difficile [3]; Example 4, isolate MMX 8333
  MIC: 2 µg/mL (≈ 11.7 µM)
Lactobacillus jensenii [4]
  MIC: > 32 µg/mL
Bifidobacterium bifidum [5]
  MIC: 1 µg/mL (≈ 5.84 µM)
B. fragilis ATCC 25285 [6]; Example 5, read-out: MIC
  MIC: 0.5 µg/mL (≈ 2.92 µM)
Clostridium difficile [7]; ATCC00057, Example 1, isolate MMX 4381 (ATCC 00057)
  MIC: 0.12 µg/mL (≈ 0.701 µM)
Clostridium difficile [7]; Example 1, isolate MMX 8330, read-out: MIC
  MIC: 0.12 µg/mL (≈ 0.701 µM)
Bacteroides fragilis [8]
  MIC: 0.5 µg/mL (≈ 2.92 µM)
B. longum MMX 3968; Bifidobacterium longum, MMX3968, Example 5, read-out: MIC
  MIC: 8 µg/mL (≈ 46.7 µM)
Lactobacillus crispatus
  MIC: > 32 µg/mL
Bifidobacterium bifidum [9]
  MIC: 2 µg/mL (≈ 11.7 µM)
Bifidobacterium longum [10]
  MIC: 8 µg/mL (≈ 46.7 µM)
B. bifidum MMX 3965; Bifidobacterium bifidum, MMX3965, Example 5, read-out: MIC
  MIC: 1 µg/mL (≈ 5.84 µM)
Lactobacillus jensenii [11]
  MIC: > 32 µg/mL

## CCCCCc1cc(O)c2c(c1)OC(C)(C)[C@@H]1CCC(C)=C[C@@H]21 [THC, tetrahydrocannabinol]
Acinetobacter baumannii
  MIC: > 128 µg/mL
C. difficile; ATCC 700057
  MBC:MIC: 2
C. difficile; [20]
  MBC: 128 µg/mL (≈ 407 µM)
  MIC: 64 µg/mL (≈ 204 µM)
C. difficile; [22]
  MBC: 64 µg/mL (≈ 204 µM)
  MIC: 64 µg/mL (≈ 204 µM)
C. difficile; [23]
  MBC: 128 µg/mL (≈ 407 µM)
  MIC: 64 µg/mL (≈ 204 µM)
C. difficile; MMX 8330
  MBC:MIC: 1
C. difficile; MMX 8333
  MBC:MIC: 2
Bifidobacterium longum [1]
  MIC: 32 µg/mL (≈ 102 µM)
Strains tested
  biocidal activity against the strains tested: overall biocidal
Aspergillus fumigatus; 24 hr, read-out: MIC at 24 hr
  MIC: > 128 µg/mL
Aspergillus fumigatus; 48 hr, read-out: MIC at 48 hr
  MIC: > 128 µg/mL
Pseudomonas aeruginosa
  MIC: > 128 µg/mL
E. coli ATCC 25922
  MIC: > 256 µg/mL
[12]
  MIC: 2 µg/mL (≈ 6.36 µM)
S. pneumoniae ATCC 49619
  MIC: 1 µg/mL (≈ 3.18 µM)
Streptococcus pneumoniae
  MIC: 1 µg/mL (≈ 3.18 µM)
[13]; Brucella Broth
  concentration at which precipitation was observed: 128 µg/mL
  precipitation observed (type): DCP
[13]; MHB II
  precipitation observed (type): DCP
[13]; MHB II with Blood
  precipitation observed (type): none
[13]; RPMI
  precipitation observed (type): TRP
[14]
  activity against yeast and fungal isolates: Neither THC nor CBD were active
Clostridium difficile [3]; [21]
  MIC: 32 µg/mL (≈ 102 µM)
Clostridium difficile [3]; Example 4, isolate MMX 8330
  MIC: 32 µg/mL (≈ 102 µM)
Clostridium difficile [3]; Example 4, isolate MMX 8333
  MIC: 32 µg/mL (≈ 102 µM)
[15]
  MIC: 2 µg/mL (≈ 6.36 µM)
Lactobacillus jensenii [4]
  MIC: 128 µg/mL (≈ 407 µM)
S. pyogenes MMX 404; Streptococcus pyogenes, MMX404
  MBC: 32 µg/mL (≈ 102 µM)
  MIC: 32 µg/mL (≈ 102 µM)
S. pyogenes MMX 404; [24]
  MBC:MIC: 1
[16]
  MIC: 2 µg/mL (≈ 6.36 µM)
Candida parapsilosis; Example 4, 24 hr
  concentration at which 50% inhibition observed relative to the growth control: 4 µg/mL
Candida parapsilosis; Example 4, 48 hr
  concentration at which 50% inhibition observed relative to the growth control: 4 µg/mL
Candida parapsilosis; ATCC22019, 24 h, read-out: MIC at 24 hr
  MIC: > 128 µg/mL
Candida parapsilosis; ATCC22019, Example 4, 48 hr, isolate MMX 2323 (ATCC 22019), read-out: MIC at 48 hr
  MIC: > 128 µg/mL
B. fragilis ATCC 25285 [6]
  MIC: > 256 µg/mL
S. aureus MMX 757; Staphylococcus aureus, MMX757
  MBC: 32 µg/mL (≈ 102 µM)
  MIC: 4 µg/mL (≈ 12.7 µM)
S. aureus MMX 757; [24]
  MBC:MIC: 8
E. faecalis MMX 848; Enterococcus faecalis, MMX848
  MBC: 4 µg/mL (≈ 12.7 µM)
  MIC: 2 µg/mL (≈ 6.36 µM)
E. faecalis MMX 848; [24]
  MBC:MIC: 2
[17]
  MIC: 2 µg/mL (≈ 6.36 µM)
gram-negative aerobes
  activity against Gram-negative aerobes: inactive
S. aureus ATCC 29213; [25]
  MBC: 4 µg/mL (≈ 12.7 µM)
  MIC: 4 µg/mL (≈ 12.7 µM)
S. aureus ATCC 29213; [24]
  MBC:MIC: 1
E. faecalis ATCC 29212; [26]
  MBC: 8 µg/mL (≈ 25.4 µM)
  MIC: 2 µg/mL (≈ 6.36 µM)
E. faecalis ATCC 29212; [24]
  MBC:MIC: 4
Bacteroides fragilis [18]
  MIC: > 128 µg/mL
Streptococcus pyogenes
  MIC: 16 µg/mL (≈ 50.9 µM)
B. longum MMX 3968; [27]
  MBC: > 256 µg/mL
  MIC: 32 µg/mL (≈ 102 µM)
B. longum MMX 3968; [24]
  MBC:MIC: >8
Bifidobacterium bifidum [9]
  MIC: 16 µg/mL (≈ 50.9 µM)
[19]
  MIC: > 128 µg/mL
B. bifidum MMX 3965; [28]
  MBC: 128 µg/mL (≈ 407 µM)
  MIC: 32 µg/mL (≈ 102 µM)
B. bifidum MMX 3965; [24]
  MBC:MIC: 4
Escherichia coli
  MIC: > 128 µg/mL

Reference: US11207291B2, “Antimicrobial compositions comprising cannabinoids and methods of using the same” (Graphium Biosciences, Inc., priority 2017, dated 2021)
